For 8 molecules, IC50, CC50 and EC50 results are on record in US6211170A, “Azetidinone derivatives for the treatment of HCMV infections” (Boehringer Ingelheim (Canada) Ltd., priority 1998, dated 2001).

The target of one data set is T1, HCMV NO protease (Human cytomegalovirus, UniProt P16753).
T1 construct: HCMV NO protease
In words: HCMV NO Protease Assay (fluorogenic substrate cleavage). The format is biochemical. To be noted: HCMV NO protease 100 nM, substrate 5 μM, pH 8, 2.5 h at 30°. The procedure: This particular assay determines the ability of a test compound to inhibit the activity (IC50) of HCMV protease. More specifically, in the assay described herein, the inhibitory activity of the test compound is evaluated on the basis of its ability to interfere with the HCMV NO protease cleavage of a fluorogenic peptide substrate which in turn is based on the maturation cleavage site of the enzyme.
1. HCMV NO Protease Assay
Material & Methods: Fluorescence measurements were recorded on a Perkin-Elmer LS-50B spectrofluorimeter equipped with a plate reader accessory. UV measurements were recorded on a Thermomax® microplate reader from Molecular Devices Corporation, Menlo Park, Calif., USA.
HCMV NO protease was assayed with an internally quenched fluorogenic substrate based on the maturation cleavage site (Abz-[…](3-NO2)R--OH, kcat /KM =260 M^-1 s^-1). The fluorescence increase upon cleavage of the Ala-Ser amide bond was monitored using excitation λ=312 nm (slit 2.5 nm) and emission λ=415 nm (slit 5 nm). A protocol adaptable to a 96-well plate format was designed for the determination of IC50 values of inhibitors.
After this period, enzymatic hydrolysis of the fluorogenic substrate in the absence of inhibitor led to about a 30% conversion. Quenching was not required before fluorescence measurement since the total scanning time by the plate reader accessory was brief relative to the duration of the reaction. The aqueous incubation buffer contained 50 mM tris(hydroxymethyl)aminomethane.HCl pH 8, 0.5M Na2 SO4, 50 mM NaCl, 0.1 mM EDTA, 1 mM tris(2-carboxyethyl)phosphine.HCl, 3% v/v DMSO and 0.05% w/v casein. The final concentrations of HCMV NO protease (expressed in terms of total monomer concentration) and substrate were 100 nM and 5 μM respectively. IC50 values were obtained through fitting of the inhibition curve to a competitive inhibition model using SAS NLIN procedure. The mode of inhibition was determined by measurements of the initial rates (in cuvettes) at various substrate concentrations in the buffer as described above. The IC50 values listed in the following tables were obtained according to this assay.

The nature of data set [1]: Cytotoxicity, tetrazolium salt (MTT) metabolic assay. The format is cell-based. To be noted: cytotoxic effects, read-out: TC50 (the source's name). The method, then:
Cytotoxic effects noted as TC50 in the following tables were determined according to the tetrazolium salt (MTT) metabolic assay, F. Denizot and F. Lang, J. Immun. Meth., 1986, 89, 271.

In data set [2] the test system is HCMV (strain AD169, ATCC VR-538). In words: Plaque Reduction Assay (PRA) in HCMV-infected Hs-68 cells. To be noted: Human betaherpesvirus 5, Hs68, 192 h; plaque reduction, HCMV strain AD169, Hs-68 cells, 8 days; read-out: EC50. In kind it is cell-based, human cytomegalovirus (HCMV). The procedure:
B. Plaque Reduction Assay (PRA):
Hs-68 cells (ATCC # CRL 1635) were seeded in 12-well plates at 83,000 cells/well in 1 mL of DMEM medium (Gibco Canada Inc.) supplemented with 10% fetal bovine serum (FBS, Gibco Canada Inc.). The plates were incubated for 3 days at 37° to allow the cells to reach 80-90% confluency prior to the assay.
The medium was removed from the cells by aspiration. The cells were then infected with approximately 50 PFU of HCMV (strain AD169, ATCC VR-538) in DMEM medium supplemented with 5% inactivated FBS (assay medium). (DMEM medium is commercially available and has been described by R. Dulbecco et al., Virology 1959, 8, 396.) The virus was allowed to adsorb to cells for 2 h at 37°. Following viral adsorption, the medium was removed from the wells by aspiration. The cells were then incubated with or without 1 mL of appropriate concentrations of test reagent in assay medium. Occasionally, test compounds were added 24 h post-infection. After 4 days of incubation at 37°, the medium was exchanged with fresh medium containing test compound and 4 days later the cells were fixed with 1% aqueous formaldehyde and stained with a 2% violet solution in 20% ethanol in water. Microscopic plaques were counted using a stereomicroscope. Drug effects were calculated as a percent reduction in the number of plaques in the presence of each drug concentration compared to the number observed in the absence of drug. Ganciclovir was used as a positive control in all experiments.
On the technique in general: Plaques are areas of infected cells; plaque reduction assays count them against a control.

T1 sequence (P16753 1-256): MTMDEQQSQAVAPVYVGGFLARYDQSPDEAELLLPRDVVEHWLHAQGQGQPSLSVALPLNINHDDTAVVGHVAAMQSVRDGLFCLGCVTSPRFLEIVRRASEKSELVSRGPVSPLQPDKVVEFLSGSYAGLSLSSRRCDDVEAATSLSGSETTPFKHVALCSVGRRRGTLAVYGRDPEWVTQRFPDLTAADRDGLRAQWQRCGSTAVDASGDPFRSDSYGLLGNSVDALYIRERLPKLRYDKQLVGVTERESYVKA

`CC[C@@H](NC(=O)N1C(=O)C[C@@H]1COC(C)=O)c1ccccc1` [Entry 132]: inhibition against HCMV NO protease was half-maximal at 3 µM (IC50). The CC50 in data set [1] was > 250 µM. Further, the concentration for a half-maximal effect (EC50) in data set [2] came out at 210 µM.
In the same order, the values of `CN(Cc1ccc(C(F)(F)F)cc1)C(=O)N1C(=O)C[C@@H]1CSc1nc2ncccc2s1` [Entry 316] are 1.6 µM, > 18 µM and 14 µM.
As to `CC[C@@H](NC(=O)N1C(=O)[C@@H](C)[C@@H]1CSc1ncccn1)c1ccccc1` [Entry 111], the IC50 on HCMV NO protease stood at 0.65 µM. In addition, the CC50 in data set [1] was > 250 µM. The EC50 in data set [2] was 110 µM.
In turn, `COC(=O)c1ccc(CN(C)C(=O)N2C(=O)C[C@@H]2CSc2nnnn2C)cc1` [Entry 309] showed an IC50 against HCMV NO protease of 1 µM. The CC50 in data set [1] was > 250 µM. Also, the EC50 in data set [2] turned out to be 130 µM.
`CC[C@@H](NC(=O)N1C(=O)[C@@H](C)[C@@H]1CSc1nc2ccccc2o1)c1ccccc1` [Entry 112] displayed an IC50 against HCMV NO protease of 0.94 µM. In addition, the CC50 in data set [1] was > 250 µM. For the same molecule, in data set [2], the EC50 was 140 µM.
As for `CC[C@@H](NC(=O)N1C(=O)[C@@H](C)[C@@H]1CSC1CCCC1)c1ccccc1` [Entry 121], the half-maximal inhibitory concentration (IC50) against HCMV NO protease stood at 4.3 µM. In addition, the CC50 in data set [1] was > 250 µM. The EC50 in data set [2] came out at 150 µM.
For `CC[C@@H](NC(=O)N1C(=O)[C@@H](C)[C@@H]1CSc1ccncc1)c1ccccc1` [Entry 118], on HCMV NO protease, inhibition was half-maximal at 1.6 µM (IC50). Moreover, the CC50 in data set [1] was 199 µM. Besides, the concentration for a half-maximal effect (EC50) in data set [2] was 55 µM.
The molecule `CN(C)C(=O)c1ccc(CN(C)C(=O)N2C(=O)C[C@@H]2CSc2ncccn2)cc1` [Entry 305] gave an IC50 against HCMV NO protease of 14 µM. Moreover, the CC50 in data set [1] was > 250 µM. The concentration giving a half-maximal response (EC50) in data set [2] worked out at 210 µM.

As a reminder, the IC50 is the concentration needed to halve the response being measured. Read a low IC50 as inhibition by little substance. In general, EC50 refers to the concentration that produces a half-maximal response.
